SMILES strings stand for the structures. pIC50: −log10 of the molar value.

Test [1] addresses Apoptosis regulator Bcl-2 (Homo sapiens, UniProt P10415). Put plainly: Displacement of Flu-Bid from human recombinant Bcl2 receptor.
In test [2] the target is Bcl-2-like protein 1 (Homo sapiens, UniProt Q07817). As to the kind of experiment: Displacement of Flu-Bid from human recombinant Bcl-xL receptor.
Bcl-2-like protein 1, sequence (Q07817 whole entry): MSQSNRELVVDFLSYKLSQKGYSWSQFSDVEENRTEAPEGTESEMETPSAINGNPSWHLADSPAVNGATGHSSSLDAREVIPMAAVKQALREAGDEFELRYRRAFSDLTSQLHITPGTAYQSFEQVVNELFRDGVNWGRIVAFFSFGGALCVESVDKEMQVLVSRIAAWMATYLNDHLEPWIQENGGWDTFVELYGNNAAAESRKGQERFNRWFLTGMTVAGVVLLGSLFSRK

Apoptosis regulator Bcl-2, sequence (P10415 whole entry): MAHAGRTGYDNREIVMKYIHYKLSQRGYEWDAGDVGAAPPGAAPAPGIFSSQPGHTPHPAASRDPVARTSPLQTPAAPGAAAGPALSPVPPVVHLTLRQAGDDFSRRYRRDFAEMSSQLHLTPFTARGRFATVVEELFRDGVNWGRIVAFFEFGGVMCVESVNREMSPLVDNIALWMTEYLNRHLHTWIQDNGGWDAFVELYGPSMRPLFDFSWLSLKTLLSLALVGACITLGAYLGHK

For `CC(C)(C)C[C@H]1N[C@@H](C(=O)NCCN2CCOCC2)[C@H](c2cccc(Cl)c2F)[C@@]12C(=O)Nc1cc(Cl)ccc12`, the pIC50 in test [1] and in test [2] was < 4.30 throughout.

These data come from ChEMBL document CHEMBL1148527, “Structure-based design of spiro-oxindoles as potent, specific small-molecule inhibitors of the MDM2-p53 interaction” (J Med Chem, 2006).
